Series [1] deals with T1, αA-crystallin (αAC) (Homo sapiens, UniProt P02489).
T1 sequence (P02489 1-173): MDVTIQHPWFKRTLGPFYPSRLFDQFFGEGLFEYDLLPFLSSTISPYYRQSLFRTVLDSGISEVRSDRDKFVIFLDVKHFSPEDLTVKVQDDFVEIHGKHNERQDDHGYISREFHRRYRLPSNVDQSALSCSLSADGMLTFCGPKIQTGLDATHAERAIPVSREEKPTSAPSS
Kind of series: Relative protein acetylation capability on recombinant αAC. The class given is biochemical. As to conditions: 500 μM acetylating agent, αAC 3 mg/mL, 24 hours, 37° C. As to the method: The relative ability of Aggrelyte-2 to acetylate lysine residues in proteins was investigated using αA-crystallin (αAC). Human recombinant αAC (3 mg/mL PBS) was incubated in 50 mM sodium phosphate buffer, pH 7.4, for 24 hours at 37° C. while shaking without or with 500 μM acetylating agent (Aggrelyte-2, acetyl-CoA, acetic anhydride, or aspirin), dialyzed against PBS for 24 hours at 4° C.

The subject of series [2] is acetyllysine (AcK)-bearing proteins in solubilized human lens WI proteins. As to the kind of experiment: AcK-bearing proteins in solubilized human lens proteins (Western blot densitometry). The class given is biochemical. The conditions noted are these: 500 μM, solubilized proteins of ten human lenses (65 to 75 years), vs Control. The source says: Chemiluminescence was detected using an Enhanced Chemiluminescence Detection Kit (Thermo Scientific). Then the membrane was stained with Ponceau-S to visualize the proteins and normalize the detected AcK-bearing protein to the total protein load via densitometry.

The subject of series [3] is αA-crystallin (αAC). Kind of series: Crystallin levels in solubilized human lens proteins (Western blot), αAC. In kind it is biochemical. As to conditions: 500 μM, solubilized proteins of three human lenses. As to the method: (§1) The contents of crystalline proteins [αA-crystallin (αAC), αB-crystallin (αBC), β-crystallin (βC), and γ-crystallin (γC)] in the solubilized proteins of three human lenses treated with either Aggrelyte-2 or Aggrelyte-2C (500 μM) from Example 4 were determined by Western blot analysis as described for Example 5. Membranes were incubated with antibodies against αAC (1:14,000 dilution; Enzo Life Sciences, Catalog #ADI-SPA-221D), αBC (1:700,000 dilution; University of Iowa), βC (1:14,000 dilution; Santa Cruz Biotechnology, Catalog #sc-22745), and γC (1:7,000 dilution; Santa Cruz Biotechnology, Catalog #sc-22746). The secondary antibodies were HRP-conjugated anti-mouse IgG for αBC and HRP-conjugated […] (Cell Signaling Technology, Catalog #7074S) for αAC, βC, and γC. According to the supplier, the […] detects mostly βB1-crystallin and, to a lesser extent, βA1/3, βA2, βA4, βB2, and βB3-crystallin. The γC antibody reacts with γA, γB, γC, γD, γE, and γF-crystallin.
(A western blot detects proteins with antibodies after separation by electrophoresis.)

A further series concerns γ-crystallin (γC). As to the kind of experiment: Crystallin levels in solubilized human lens proteins (Western blot), γC. In kind it is biochemical. As to conditions: 500 μM, solubilized proteins of three human lenses. As to the method:
as §1

Series [4] has as its system mouse lenses. As to the kind of experiment: Stiffness and axial strain of ex vivo mouse lenses (Example 10). The conditions noted are these: 1 mM, 24 hours, 100 mg load. Also noted: species or system mouse (C57BL/6J). As to the method:
(§2) In this example, the lenses were dissected from the eyes of mice (C57BL/6J, 5-8 months old, Jackson Laboratories, Stock No. 000664, n=4-5) by a posterior approach and incubated without (“Control”) or with Aggrelyte-2 or Aggrelyte-2C (1 mM) for 24 hours in serum-free and phenol-red-free MEM (297 mOsm) at 37° C. Lens stiffness was measured as previously described in Baradia, H. et al., (2010) Exp. Eye Res. 91, 300-307. Briefly, the lens was placed on a flat platform with the anterior side facing up, and a load was applied to the top of the lens at 100 mg increments for mouse lenses and at 250 mg increments for human lenses. The displacement in the lens axial diameter (in μm or mm) was measured using MATLAB software developed by Dr. Adrian Glasser, UK, and plotted against the load applied. The displacement at a specific load was used to determine differences in lens stiffness between the untreated control and aggrelyte-treated lenses.
(§3) Freshly obtained human lenses (42-68 years old, n=10-12) were incubated with or without Aggrelyte-2 or Aggrelyte-2C (1 mM) for a total of 72 h in phenol red-free MEM with a change in media containing freshly dissolved aggrelytes every 24 h. One lens from each donor pair was used as the control, and the other was treated with aggrelyte. After incubation, the lens stiffness was measured as described above. Axial strain was also calculated based on the following formula: […]

Series [5] deals with human lenses. Kind of series: Stiffness and axial strain of ex vivo human lenses (Example 10). The conditions noted are these: 1 mM, 72 h; for lens stiffness (displacement) vs untreated controls: human lenses (42-68 years), loads of 500 mg and 1000 mg; for axial strain vs controls: human lenses, 500 mg and 1000 mg loads. As to the method: as §2, §3
Series [6] relates to mouse lenses. As to the kind of experiment: AcK-bearing proteins in WS fraction of treated mouse lenses (Western blot). As to conditions: 1 mM, 24 hours, vs untreated controls (p<0.01) and Aggrelyte-2C (p<0.001). As to the method:
Mouse and human lenses were treated with aggrelytes as described in Example 10. Water-soluble proteins from mouse and human lenses were obtained as described in Example 13. Effects of aggrelyte treatment on AcK-bearing proteins in the WS fractions were evaluated by Western blot analysis as described in Example 5. For Western blotting, 10-20 μg of protein from each lens sample was used and each sample was separately processed three times and analyzed.

Series [7] relates to mouse lenses. Kind of series: AcK in WS fraction of treated mouse lenses (LC-MS/MS). As to conditions: 1 mM, 24 hours, vs untreated controls and Aggrelyte-2C (p<0.0001). As to the method: (§4) Mouse and human lenses were treated with aggrelytes as described in Example 10. Water-soluble proteins from mouse and human lenses were obtained as described in Example 13. Effects of aggrelyte treatment on AcK-bearing proteins in the WS fractions were evaluated by LC-MS/MS analysis as described in Example 6.

Series [8] has as its system human lenses. As to the kind of experiment: AcK in WS cortical and nuclear fractions of treated human lenses (LC-MS/MS). The conditions noted are these: 1 mM, 72 h, vs untreated controls. As to the method: as §4
The test system of a further series is human (60-62 years) lens. Kind of series: Human lens transparency (separate study). The conditions noted are these: data not shown. An excerpt: The reduction in stiffness was similar at 400- and 500-mg loads (FIGS. 21C and 21D, respectively).
The subject of series [9] is human lenses. As to the kind of experiment: Stiffness of ex vivo human lenses (Example 22). As to conditions: 250 μM, 48 hours, ex vivo human lenses (47-67 years). As to the method:
To test the effects of Aggrelyte-2 and Aggrelyte-2A on human lenses (age: 47-67 years), lenses were incubated in media containing freshly dissolved aggrelyte (250 μM) for 48 hours, with aggrelyte replacement after 24 hours. One lens from each donor pair was treated with aggrelyte, while the other was used as the control. After incubation, lens stiffness was measured, as described above in Example 20.

The values below come from US12350250B2, “Aggrelytes for treating ocular conditions” (The Regents of the University of Colorado, a Body Corporate, priority 2022, dated 2025).

With `COC(=O)[C@H](CSC(C)=O)NC(C)=O` [Aggrelyte-2, N,S-diacetyl-L-cysteine methyl ester], the “rank order of acetylating agents” value at αA-crystallin (αAC) [1] was “followed by Aggrelyte-2, aspirin, and acetyl-CoA”. Further, the “amount of AcK-bearing proteins (Western blot densitometry)” value in series [2] is listed as “significantly (p<0.001) increased”. The “levels of αAC, fold higher than in the Aggrelyte-2C-treated samples” value in the series with αA-crystallin (αAC) [3] is given as 1.3 fold. Besides, the “levels of γC vs Controls” value with γ-crystallin (γC) is “slightly but not significantly higher”. Further, the “lens stiffness vs untreated control lenses” value with mouse lenses [4] (6-month-old mouse lenses) was “significantly (p<0.05) reduced the stiffness”. Moreover, the “axial strain vs controls” value with mouse lenses [4] (mouse lenses) was “significantly (p<0.05) reduced the axial strain”. In addition, the “displacement, % greater than that by Aggrelyte-2C” value in the series with mouse lenses [4] (mouse lenses, not significantly greater) came out at 8.7%. Besides, in the series with human lenses [5], the “lens stiffness (displacement) vs untreated controls” value is recorded as “significantly (p<0.01) reduced lens stiffness” and the “axial strain vs controls” value is “significantly (p<0.01) reduced the axial strain”. In addition, the “AcK modifications in WS proteins (Western blot)” value with mouse lenses [6] was “significantly higher AcK modifications”. In addition, the “AcK modifications in WS proteins (LC-MS/MS)” value in the series with mouse lenses [7] is “significantly higher AcK modifications”. Also, in the series on human lenses [8], the “AcK content, cortical protein fraction (LC-MS/MS)” value is given as “Significantly higher (p<0.05)” and the “AcK, nuclear fraction (LC-MS/MS)” value is “not statistically greater”. Besides, the “lens transparency compared to vehicle-treated lenses” value in the series with human (60-62 years) lens is recorded as “did not reduce or otherwise change”. The “effect on lens stiffness” value with human lenses [9] is “no effect on stiffness”.
For the molecule `COC(=O)[C@H](CS)NC(C)=O` [Aggrelyte-2C, N-acetyl-L-cysteine methyl ester], the “amount of AcK-bearing proteins (Western blot densitometry)” value in series [2] was “did not increase the AcK levels”. The “levels of γC vs Controls” value in the series on γ-crystallin (γC) was “no effect”. The “axial strain vs controls” value with mouse lenses [4] (mouse lenses) and in the series on human lenses [5] was “did not have a significant effect” in each case. Moreover, in the series on human lenses [5], the “lens stiffness (displacement) vs untreated controls” value is “did not demonstrate significant effects on displacement”. Also, in the series with human (60-62 years) lens, the “lens transparency compared to vehicle-treated lenses” value is on record as “did not reduce or otherwise change”.
